The values that follow come from BindingDB's records for doi:10.1021/bi1011157 (Albert Einstein College of Medicine, 2010).

In this test the target is T1, Pyrazinamidase/nicotinamidase PncA (Mycobacterium tuberculosis, UniProt Q50575).
T1 sequence (Q50575 whole entry): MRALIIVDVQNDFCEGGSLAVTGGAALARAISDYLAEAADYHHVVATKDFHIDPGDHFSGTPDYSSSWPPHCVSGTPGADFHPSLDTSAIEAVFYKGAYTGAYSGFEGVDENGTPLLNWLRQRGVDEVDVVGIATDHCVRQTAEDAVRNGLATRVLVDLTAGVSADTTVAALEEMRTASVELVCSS
The test can be described thus: Enzyme Assay. The protocol:
Enzyme activity measurement by a coupled assay. initial velocities for the reaction of MtPncA were determined by monitoring the loss of absorbance at 340 nm associated with oxidation of NADH to NAD by L-glutamic dehydrogenase (GDH) to produce glutamate from alpha-ketoglutarate.

As a reminder, the Ki is a dissociation constant, usually derived from enzyme kinetics or from competition with a known ligand. Low values mean a stronger hold on the target, high ones a looser hold on the target. Consider `O=Cc1cnccn1` [PncA Inhibitor, 1], for which the Ki was 1.5 µM. This lies in the single-digit micromolar range.

The compound `O=Cc1cccnc1` [PncA Inhibitor, 2] registered a Ki of 0.3 µM.

In the case of `O=C(c1cccnc1)C(F)(F)F` [PncA Inhibitor, 3], the affinity, expressed as Ki, was 420 µM.

Compound `OCc1cccnc1` [PncA Inhibitor, 4] yielded a Ki of 63 µM.

Take `N#Cc1cccnc1` [PncA Inhibitor, 5]: affinity was put at a Ki of 140 µM.

Turning to `N#Cc1cnccn1` [PncA Inhibitor, 6], the Ki was 61 µM. This Ki is about 2.3-fold lower than that of the compound before.
